Data published in ChEMBL document CHEMBL4190350, “Synthesis, antimicrobial, antiquorum-sensing, antitumor and cytotoxic activities of new series of cyclopenta(hepta)[b]thiophene and fused cyclohepta[b]thiophene analogs” (Eur J Med Chem, 2017).
In brackets after ≈: the same amount, converted by molar mass. Activity calls are given as the source filed them. The rule behind the calls is not given here.

Columns and labels:
Staphylococcus aureus [1] = experiment: Antimicrobial activity against Staphylococcus aureus incubated for 24 hrs by disc diffusion assay; type: functional
Mus musculus [2] = experiment: Toxicity in mouse EAC cells implanted Swiss albino mouse assessed as WBC count at 0.5 mg for 9 days (reference value: 23.96 10^3/mm3); type: organism-based; settings: in vivo, 216 h
Candida albicans = experiment: Antimicrobial activity against Candida albicans incubated for 48 hrs by disc diffusion assay; type: functional
HepG2 = experiment: Antitumor activity against human HepG2 cells assessed as inhibition of cell viability incubated for 48 hrs by MTT assay; type: functional, cell-based; settings: HepG2, 48 h
Ehrlich [3] = experiment: Antitumor activity against mouse EAC cells implanted in Swiss albino mouse assessed as tumor volume at 0.5 mg for 9 days (reference value: 9.85 ml); type: functional
Bacillus cereus [4] = experiment: Antimicrobial activity against Bacillus cereus incubated for 24 hrs by disc diffusion assay; type: functional
Mus musculus [5] = experiment: Toxicity in mouse EAC cells implanted Swiss albino mouse assessed as hemoglobin level at 0.5 mg for 9 days (reference value: 8.15 g/dl); type: organism-based; settings: in vivo, 216 h
HT-29 = experiment: Antitumor activity against human HT-29 cells assessed as inhibition of cell viability incubated for 48 hrs by MTT assay; type: functional, cell-based; settings: HT-29, 48 h
Aspergillus fumigatus [6] = experiment: Antimicrobial activity against Aspergillus fumigatus incubated for 48 hrs by disc diffusion assay; type: functional
[7] = Binding affinity to DNA (unknown origin) assessed as reduction in absorption maxima for methyl green/DNA complex incubated for 24 hrs by methyl green/DNA displacement assay
WI-38 = experiment: Cytotoxicity in human WI38 cells assessed as inhibition of cell viability incubated for 48 hrs by MTT assay; type: cell-based; settings: WI-38, 48 h
Ehrlich [8] = experiment: Antitumor activity against mouse EAC cells implanted in Swiss albino mouse assessed as mean survival time at 0.5 mg for 9 days (reference value: 14.5 day); type: functional
Aspergillus fumigatus [9] = experiment: Antimicrobial activity against Aspergillus fumigatus incubated for 48 hrs by serial dilution method; type: functional
MCF7 = experiment: Antitumor activity against human MCF7 cells assessed as inhibition of cell viability incubated for 48 hrs by MTT assay; type: functional, cell-based; settings: MCF7, 48 h
[10] = test system: Chromobacterium violaceum; experiment: Inhibition of quorum sensing system in Chromobacterium violaceum ATCC 12472 assessed as inhibition of violacein production at 5 mg/mL incubated for 48 hrs
Escherichia coli [11] = experiment: Antimicrobial activity against Escherichia coli incubated for 24 hrs by disc diffusion assay; type: functional
Ehrlich [12] = experiment: Antitumor activity against mouse EAC cells implanted in Swiss albino mouse assessed as reduction in tumor cell count at 0.5 mg for 9 days (reference value: 9.85 ml); type: functional, cell-based
Ehrlich [13] = experiment: Antitumor activity against mouse EAC cells implanted in Swiss albino mouse assessed as increase in life span at 0.5 mg for 9 days relative to untreated control; type: functional
Mus musculus [14] = experiment: Toxicity in mouse EAC cells implanted Swiss albino mouse assessed as RBC count at 0.5 mg for 9 days (reference value: 3.69 10^6/mm3); type: organism-based; settings: in vivo, 216 h
Bacillus cereus [15] = experiment: Antimicrobial activity against Bacillus cereus incubated for 24 hrs by serial dilution method; type: functional
Staphylococcus aureus [16] = experiment: Antimicrobial activity against Staphylococcus aureus incubated for 24 hrs by serial dilution method; type: functional
Escherichia coli [17] = experiment: Antimicrobial activity against Escherichia coli incubated for 24 hrs by serial dilution method; type: functional

## CCOC(=O)/C(=N/Nc1sc2c(c1C(=O)OCC)CCC2)C(C)=O
Staphylococcus aureus [1]
  diameter of the inhibition zone (DIZ): <2 mm
Mus musculus [2]
  Activity: 7.56 ×10³ /mm3
Candida albicans
  diameter of the inhibition zone (DIZ): 5 mm
HepG2
  IC50: 16.1 µM
Ehrlich [3]
  Activity: 2.32 mL
Bacillus cereus [4]
  diameter of the inhibition zone (DIZ): 7 mm
Mus musculus [5]
  Activity: 13.1 g/dL
HT-29
  IC50: 8.8 µM
Aspergillus fumigatus [6]
  diameter of the inhibition zone (DIZ): 16 mm
[7]
  IC50: 65.7 µM
WI-38
  IC50: 25.3 µM
Ehrlich [8]
  MST: 44.3 days
Aspergillus fumigatus [9]
  MIC: 887 µM (≈ 312 µg/mL)
MCF7
  IC50: 9.7 µM
[10]
  INH: 6 mm
Escherichia coli [11]
  diameter of the inhibition zone (DIZ): 4 mm
Ehrlich [12]
  Activity: Active
Ehrlich [13]
  ILS: 205.52%
Mus musculus [14]
  Activity: 5.49 ×10⁶ /mm3

## CCOC(=O)/C(=N/Nc1sc2c(c1C(=O)OCC)CCCCC2)C(C)=O
Staphylococcus aureus [1]
  diameter of the inhibition zone (DIZ): 32 mm
Mus musculus [2]
  Activity: 7.11 ×10³ /mm3
Candida albicans
  diameter of the inhibition zone (DIZ): <2 mm
HepG2
  IC50: 9.1 µM
Bacillus cereus [15]
  MIC: 411 µM (≈ 156 µg/mL)
Ehrlich [3]
  Activity: 1.97 mL
Bacillus cereus [4]
  diameter of the inhibition zone (DIZ): 24 mm
Mus musculus [5]
  Activity: 13.15 g/dL
HT-29
  IC50: 4.5 µM
Aspergillus fumigatus [6]
  diameter of the inhibition zone (DIZ): <2 mm
Staphylococcus aureus [16]
  MIC: 205 µM (≈ 78.1 µg/mL)
Escherichia coli [17]
  MIC: 205 µM (≈ 78.1 µg/mL)
[7]
  IC50: 40.6 µM
WI-38
  IC50: 44.8 µM
Ehrlich [8]
  MST: 45 days
MCF7
  IC50: 5.8 µM
[10]
  INH: < 2 mm
Escherichia coli [11]
  diameter of the inhibition zone (DIZ): 22 mm
Ehrlich [12]
  Activity: Active
Ehrlich [13]
  ILS: 210.34%
Mus musculus [14]
  Activity: 5.51 ×10⁶ /mm3

## CC1=NN=C(C)C1=NNc1sc2c(c1C(=O)NN)CCCCC2
Staphylococcus aureus [1]
  diameter of the inhibition zone (DIZ): <2 mm
Mus musculus [2]
  Activity: 6.9 ×10³ /mm3
Candida albicans
  diameter of the inhibition zone (DIZ): <2 mm
HepG2
  IC50: 6.9 µM
Ehrlich [3]
  Activity: 1.85 mL
Bacillus cereus [4]
  diameter of the inhibition zone (DIZ): <2 mm
Mus musculus [5]
  Activity: 13.23 g/dL
HT-29
  IC50: 5.7 µM
Aspergillus fumigatus [6]
  diameter of the inhibition zone (DIZ): <2 mm
[7]
  IC50: 27.8 µM
WI-38
  IC50: 33.2 µM
Ehrlich [8]
  MST: 47.5 days
MCF7
  IC50: 4.1 µM
[10]
  INH: 5 mm
Escherichia coli [11]
  diameter of the inhibition zone (DIZ): <2 mm
Ehrlich [12]
  Activity: Active
Ehrlich [13]
  ILS: 227.55%
Mus musculus [14]
  Activity: 5.57 ×10⁶ /mm3
